How the values were obtained:
[1] = tested on: genes related to inflammation; assay: RNA sequencing and qPCR of endometriotic lesions; format: in vivo, mice; details: 3 weeks vs control
Procedure: The endometriotic lesions were screened by RNA sequencing for the expression of a variety of genes of interest. Total RNA was isolated from the lesions using the RNeasy mini kit (#74104, Qiagen). RNA quality was assessed, and RNA-sequencing (RNA-seq) were performed at the Functional Genomics Core Facility of University of Illinois. Briefly, the stranded RNA-seq libraries were prepared with IIlumina's TruSeq Stranded RNA Sample Prep kit (# RS-122-2201, Illumina). The libraries were pooled in equimolar concentration, and the pool was quantitated by qPCR and sequenced on one lane for 101 cycles on a HiSeq2500 (Illumina) using a HiSeq SBS sequencing kit (# FC-401-4002, Illumina). Fastq files were generated and demultiplexed with the bcl2fastq v1.8.4 Conversion Software (Illumina). Quantitative PCR (qPCR) was performed as described previously [Reardon, 2012]. The 5′-3′ sequences of the primer pairs (forward and reverse primer pairs) used to determine the presence of different genes are shown in Table 3. For each gene, the name of the gene, the accession number of the gene, the 5′-3′ sequence of the paired primers, and the length of the amplicon obtained is provided in Table 3. All experimental data were subjected to one-way ANOVA tests and the differences between individual means were tested by a Tukey multiple-range test using Prism 5.0 (GraphPad). qPCR data were tested by t-test using Prism 5.0. Tests of significance were performed using the appropriate error terms according to the expectation of the mean squares for error. […] Data are presented as mean with standard error of the mean (SEM).

NOS2 (iNOS) = assay: Immunohistochemistry of endometriotic lesions, NOS2; format: in vivo, mice; details: 3 weeks; for % of NOS2 positive cells/total cells/0.007 mm^2, Stroma: control 75.2 ± 4.6
Source text: The presence and location of different proteins in the tissues obtained from the recipient mice. Samples of uterine tissue were isolated from the recipient mice, fixed by standard histological methods, and embedded in paraffin. Thin sections (5 μm) of the paraffin-embedded tissues were screened with standard immunohistochemical methods using antibodies to identify the expression of in the uterine tissues. […] The expression of MKI67, ESR1, PGR, p-CHUK, p-STAT3, NOS2 and PTGS2 proteins in uterine tissues, as determined by immunohistochemical analysis of uterine tissue sections, was semiquantitatively analyzed. Levels of apoptosis were analyzed by TUNEL assay and also semiquantitatively analyzed. […] Histological sections were obtained from 4 different lesions. For each section, three different areas measuring 0.007 mm^2 were chosen. In each of those areas, the total number of epithelial or stromal cells was counted, as was the number of cells that tested positive for expressing MKI67 (a marker of cellular proliferation), steroid receptors ESR1 and PGR, and inflammatory signaling molecules p-CHUK, p-STAT3, NOS2 and PTGS2 proteins.

MKI67 (Ki67) = assay: Immunohistochemistry of endometriotic lesions, MKI67 (cell proliferation); format: in vivo, mice; details: 3 weeks; for % of MKI67 positive cells/total cells/0.007 mm^2, Stroma: control 13.8 ± 1.4
Source text: (§1) The presence and location of different proteins in the tissues obtained from the recipient mice. Samples of uterine tissue were isolated from the recipient mice, fixed by standard histological methods, and embedded in paraffin. Thin sections (5 μm) of the paraffin-embedded tissues were screened with standard immunohistochemical methods using antibodies to identify the expression of in the uterine tissues.
(§2) Primary antibodies that recognized MKI67 (Ki67), PECAM1 (CD31), ESR1, PGR, p-CHUK (IKK), p-STAT3, NOS2 (iNOS) and PTGS2 (COX2), and Vectastain Elite ABC Kit (# PK-6101), Mouse on Mouse Basic Kit (# BMK-2202, Vector laboratories) or DyLight-conjugated secondary antibody (#711-516-152, Jackson ImmunoResearch Lab) were used to show the presence of the proteins in the tissues, which were examined under microscopes.
(§3) The primary antibodies used in these analyses were: anti-MKI67 (Ki67, 1:200 dilution, 550609, BD Biosciences), anti-PECAM1 (CD31, 1:100 dilution, ab28364, Abcam), anti-ESR1 (1:100 dilution, sc-542, Santa Cruz Biotechnology), anti-PGR (1:200 dilution, RB-9017-P0, Thermo Scientific), anti-p-CHUK (IKK, 1:150 dilution, 2697, Cell Signaling Technology), anti-p-STAT3 (1:50 dilution, 9145, Cell Signaling Technology), anti-NOS2 (iNOS, 1:50 dilution, 610333, BD Biosciences) and anti-PTGS2 (COX2, 1:50 dilution, RM-9121, Thermo Scientific).
(§4) The expression of MKI67, ESR1, PGR, p-CHUK, p-STAT3, NOS2 and PTGS2 proteins in uterine tissues, as determined by immunohistochemical analysis of uterine tissue sections, was semiquantitatively analyzed. Levels of apoptosis were analyzed by TUNEL assay and also semiquantitatively analyzed. Histological sections were obtained from 4 different lesions. For each section, three different areas measuring 0.007 mm^2 were chosen. In each of those areas, the total number of epithelial or stromal cells was counted, as was the number of cells that tested positive for expressing MKI67 (a marker of cellular proliferation), steroid receptors ESR1 and PGR, and inflammatory signaling molecules p-CHUK, p-STAT3, NOS2 and PTGS2 proteins.

PTGS2 (COX2) = assay: Immunohistochemistry of endometriotic lesions, PTGS2; format: in vivo, mice; details: 3 weeks; for % of PTGS2 positive cells/total cells/0.007 mm^2, Stroma: control 20.1 ± 2.2; for % of PTGS2 positive cells/total cells/0.007 mm^2, Epithelium: control 98.4 ± 0.5
Source text: as §1, §2, §3, §4
The expression of PTGS2 (COX2), an inflammatory molecule […] by NFκB and STAT3 signaling, was examined with a primary antibody against PTGS2.

PECAM1 (CD31) = assay: Immunohistochemistry of endometriotic lesions, PECAM1 (endothelial cells); format: in vivo, mice; details: 3 weeks, control 38.3 ± 3.6
Source text: as §1
Primary antibodies that recognized MKI67 (Ki67), PECAM1 (CD31), ESR1, PGR, p-CHUK (IKK), p-STAT3, NOS2 (iNOS) and PTGS2 (COX2), and Vectastain Elite ABC Kit (# PK-6101), Mouse on Mouse Basic Kit (# BMK-2202, Vector laboratories) or DyLight-conjugated secondary antibody (#711-516-152, Jackson ImmunoResearch Lab) were used to show the presence of the proteins in the tissues, which were examined under microscopes. […]
The expression of PECAM1, a marker of endothelial cells, was semiquantitatively analyzed using areas of 0.02 mm^2 (3 different areas counted from each section, with sections obtained from 4 different lesions), and semiquantitatively analyzed.

rats = details: orally for 4 weeks; cited from earlier work
[2] = ORGANIZATION WH, 2002; cited from earlier work

O=C(Nc1ccc([N+](=O)[O-])cc1Cl)c1cc(Cl)ccc1O [niclosamide, 5-chloro-N-(2-chloro-4-nitrophenyl)-2-hydroxybenzamide]
Ccl17 level in the endometriotic lesions ([1]; 200 mg/kg b.w./day): increased | expression of genes related to inflammation (Cxcl14, Lep, Lpo, Muc13, Trpc3 and Ptprz1) in the endometriotic lesions ([1]; qPCR n=6-8, 200 mg/kg b.w./day): significantly decreased | expression of Id4 and Wnt7a in treated lesions ([1]; qPCR, 200 mg/kg b.w./day): reduced | % of NOS2 positive cells/total cells/0.007 mm^2, Stroma (NOS2 (iNOS); 100 mg/kg b.w./day oral): 57.8 ± 4.3% | % of NOS2 positive cells/total cells/0.007 mm^2, Epithelium (NOS2 (iNOS); 100 mg/kg b.w./day oral, control 99.5 ± 0.4): 99.5 ± 0.5% | % of NOS2 positive cells/total cells/0.007 mm^2, Stroma (NOS2 (iNOS); 200 mg/kg b.w./day oral): 61.9 ± 5.7% | % of NOS2 positive cells/total cells/0.007 mm^2, Epithelium (NOS2 (iNOS); 200 mg/kg b.w./day oral, control 99.5 ± 0.4, p < 0.05): 86.2 ± 5.9 % | % of MKI67 positive cells/total cells/0.007 mm^2, Stroma (MKI67 (Ki67); 100 mg/kg b.w./day oral): 10.9 ± 1.9% | % of MKI67 positive cells/total cells/0.007 mm^2, Epithelium (MKI67 (Ki67); 100 mg/kg b.w./day oral, control 61.6 ± 5.9, 100 mg/kg/day): 50.1±7.9% | % of MKI67 positive cells/total cells/0.007 mm^2, Epithelium (MKI67 (Ki67); 100 mg/kg b.w./day oral, control 61.6 ± 5.9, listed as Niclosamide, 100 mg/kg/day): 50.1 ± 7.9% | % of MKI67 positive cells/total cells/0.007 mm^2, Stroma (MKI67 (Ki67); 200 mg/kg b.w./day oral): 7.9 ± 1.9% | % of MKI67 positive cells/total cells/0.007 mm^2, Epithelium (MKI67 (Ki67); 200 mg/kg b.w./day oral, control 61.6 ± 5.9, p < 0.05, 200 mg/kg/day): 37.7±7.2% | % of MKI67 positive cells/total cells/0.007 mm^2, Epithelium (MKI67 (Ki67); 200 mg/kg b.w./day oral, control 61.6 ± 5.9, p < 0.05, listed as Niclosamide, 200 mg/kg/day): 37.7 ± 7.2 % | % of PTGS2 positive cells/total cells/0.007 mm^2, Stroma (PTGS2 (COX2); 100 mg/kg b.w./day oral): 20.3 ± 3.3% | % of PTGS2 positive cells/total cells/0.007 mm^2, Epithelium (PTGS2 (COX2); 100 mg/kg b.w./day oral): 98.2 ± 0.5% | % of PTGS2 positive cells/total cells/0.007 mm^2, Stroma (PTGS2 (COX2); 200 mg/kg b.w./day oral): 22.8 ± 2.0% | % of PTGS2 positive cells/total cells/0.007 mm^2, Epithelium (PTGS2 (COX2); 200 mg/kg b.w./day oral): 98.7 ± 0.7% | Cell number of PECAM1 positive cells/0.02 mm^2 (PECAM1 (CD31); 100 mg/kg b.w./day oral): 34.7 ± 3.6 cells/0.02 mm^2 | Cell number of PECAM1 positive cells/0.02 mm^2 (PECAM1 (CD31); 200 mg/kg b.w./day oral): 32.7 ± 2.8 cells/0.02 mm^2 | dose that elicits no adverse effects (rats): up to 2000 mg/kg daily | water solubility [2]: < 20 µM
